The target of data set [1] is T1, YePEPT (Yersinia enterocolitica, UniProt A0A2R9TD79).
T1 construct: gene YEP4_02370; wild-type
T1 sequence (A0A2R9TD79 1-511): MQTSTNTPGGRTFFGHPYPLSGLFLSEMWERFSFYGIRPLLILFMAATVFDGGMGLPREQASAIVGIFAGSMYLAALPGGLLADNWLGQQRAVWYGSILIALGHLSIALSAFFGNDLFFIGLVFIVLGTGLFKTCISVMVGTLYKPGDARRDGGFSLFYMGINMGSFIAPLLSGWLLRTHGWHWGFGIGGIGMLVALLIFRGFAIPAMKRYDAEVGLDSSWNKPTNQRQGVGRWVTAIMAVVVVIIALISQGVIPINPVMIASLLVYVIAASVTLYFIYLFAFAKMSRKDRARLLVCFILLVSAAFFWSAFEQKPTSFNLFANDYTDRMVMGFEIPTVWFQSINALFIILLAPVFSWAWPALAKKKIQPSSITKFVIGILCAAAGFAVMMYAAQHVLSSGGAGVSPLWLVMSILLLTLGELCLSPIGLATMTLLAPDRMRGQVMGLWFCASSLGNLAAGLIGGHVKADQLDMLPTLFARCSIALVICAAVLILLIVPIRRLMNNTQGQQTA
Put plainly: [3H]Ala-Ala uptake competition in E. coli at […]. The settings on record: read-out: % inhibition at 5 mM. The format is cell-based.

Data set [2] has as its target T2, YePEPT (Yersinia enterocolitica, UniProt A0A2R9TD79, F311Y/K314A).
T2 construct: gene YEP4_02370
Put plainly: SSM electrophysiology with proteoliposomes of purified transporter ([…]); also uptake inhibition in cells. The data set is classed as biochemical.

In data set [3] the target is T3, YePEPT (Yersinia enterocolitica, UniProt A0A2R9TD79, K314A).
T3 construct: gene YEP4_02370
The data set can be described thus: [3H]Ala-Ala uptake competition in E. coli at […]. The format is cell-based.

Data set [4] concerns the target T2, YePEPT. Put plainly: [3H]Ala-Ala uptake competition in E. coli overexpressing the transporter; transport confirmed by SSM electrophysiology in proteoliposomes. The format is cell-based.
The test system of data set [5] is C[C@H](N)C(=O)N[C@@H](C)C(=O)O. The data set can be described thus: radioligand uptake kinetics in E. coli; SSM electrophysiology in proteoliposomes. The format is cell-based, Yersinia enterocolitica.

With `CC1(C)S[C@@H]2[C@H](NC(=O)[C@H](N)c3ccccc3)C(=O)N2[C@H]1C(=O)O` [compound 1, ampicillin], the inhibition at 5000 µM at YePEPT [1] was about 50%. On YePEPT [2], the “% transported charge relative to Ala-Ala” value is 9 % transported charge relative to Ala-Ala.
`CC1(C)S[C@@H]2[C@H](NC(=O)[C@H](N)c3ccc(O)cc3)C(=O)N2[C@H]1C(=O)O` [compound 2, amoxicillin]: at YePEPT [1], the inhibition at 5000 µM was about 50%. Besides, the “[3H]Ala-Ala uptake competition in E. coli at 5 mM” value at YePEPT [3] was “YePEPT^K314A (Fig. 2c) showed a strong increase in affinity for amoxicillin and cefadroxil”. The IC50 at YePEPT [4] was found to be 106 µM.
As to `CC1=C(C(=O)O)N2C(=O)[C@@H](NC(=O)[C@H](N)c3ccc(O)cc3)[C@H]2SC1` [compound 6, cefadroxil], the “[3H]Ala-Ala uptake competition in E. coli at 5 mM” value on YePEPT [3] is “YePEPT^K314A (Fig. 2c) showed a strong increase in affinity for amoxicillin and cefadroxil”. Besides, the concentration for half-maximal inhibition (IC50) at YePEPT [4] worked out at 229 µM.
For `CC=CC1=C(C(=O)O)N2C(=O)[C@@H](NC(=O)[C@H](N)c3ccc(O)cc3)[C@H]2SC1` [compound 7, cefprozil], the IC50 on YePEPT [4] was found to be 32 µM.
“YePEPT (Yersinia enterocolitica subsp. palearctica YE-P4; F311Y/K314A)”: the Michaelis constant (Km) in data set [5] worked out at 199 µM.

The values are drawn from article PMC8390754, “Engineering and functional characterization of a proton-driven β-lactam antibiotic translocation module for bionanotechnological applications” (Scientific Reports, 2021).
